Data reported in PMC12951562, “SH2scan: Mapping SH2 Domain-Ligand Binding Selectivity for Inhibitors and Degraders” (Journal of Medicinal Chemistry, 2026).
Non-standard residues stand in square brackets, D forms with d. Residues, ends and D or L forms follow the SMILES beside them. pY = N[C@@H](Cc1ccc(OP(=O)(O)O)cc1)C(=O)O

Key:
Experiment in all cases: biochemical
Assay type in all cases: binding
PIK3R2(SH2dom.N-term.) = target: T1, PIK3R2(SH2dom.N-term.) (Homo sapiens, UniProt O00459)
T1 construct: SH2dom.N-term. denotes SH2 domain closest to N-terminus of protein; made in house; host or cells: HEK293 (transient transfection, unpurified extract)

PIK3R3(SH2dom.N-term.) = target: T2, PIK3R3(SH2dom.N-term.) (Homo sapiens, UniProt Q92569)
T2 construct: SH2dom.N-term. denotes SH2 domain closest to N-terminus of protein; made in house; host or cells: HEK293 (transient transfection, unpurified extract)

PIK3R1(SH2dom.N-term.) = target: T3, PIK3R1(SH2dom.N-term.) (Homo sapiens, UniProt P27986)
T3 construct: SH2dom.N-term. denotes SH2 domain closest to N-terminus of protein; made in house; host or cells: HEK293 (transient transfection, unpurified extract)

RASA1(SH2dom.N-term.) = target: T4, RASA1(SH2dom.N-term.) (Homo sapiens, UniProt P20936)
T4 construct: SH2dom.N-term. denotes SH2 domain closest to N-terminus of protein; made in house; host or cells: HEK293 (transient transfection), unpurified extract
T4 sequence (P20936 181-272 limits assumed): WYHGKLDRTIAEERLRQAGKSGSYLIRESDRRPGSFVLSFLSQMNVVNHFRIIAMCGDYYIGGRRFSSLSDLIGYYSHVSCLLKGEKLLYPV

FRK = target: T5, FRK (Homo sapiens, UniProt P42685); details: dose-response; read-out: KD
T5 construct: the DNA-tagged SH2 domain concentrations used in this study were <0.1 nM; made in house; host or cells: HEK293 (transient transfection; unpurified extract)

YES = target: T6, YES (Homo sapiens, UniProt P07947); details: dose-response; read-out: KD
T6 construct: the DNA-tagged SH2 domain concentrations used in this study were <0.1 nM; made in house; host or cells: HEK293 (transient transfection; unpurified cell extract)

BLK = target: T7, BLK (Homo sapiens, UniProt P51451); details: dose-response; read-out: KD
T7 construct: the DNA-tagged SH2 domain concentrations used in this study were <0.1 nM; made in house; host or cells: HEK293 (transient transfection; unpurified extract)

FYN = target: T8, FYN (Homo sapiens, UniProt P06241); details: dose-response; read-out: KD
T8 construct: the DNA-tagged SH2 domain concentrations used in this study were <0.1 nM; made in house; host or cells: HEK293 (transient transfection; unpurified extract)

PTPN6(SH2dom.N-term.) = target: T9, PTPN6(SH2dom.N-term.) (Homo sapiens, UniProt P29350)
T9 construct: SH2dom.N-term. denotes SH2 domain closest to N-terminus of protein; made in house; host or cells: HEK293 (transient transfection, unpurified extract)
T9 sequence (P29350 4-100 limits assumed): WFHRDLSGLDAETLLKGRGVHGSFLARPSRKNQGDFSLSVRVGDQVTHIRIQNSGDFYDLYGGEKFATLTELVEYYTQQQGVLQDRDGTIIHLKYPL

GADS = target: T10, GADS (Homo sapiens, UniProt O75791)
T10 construct: the DNA-tagged SH2 domain concentrations used in this study were <0.1 nM; made in house; host or cells: HEK293 (transient transfection; unpurified extract)
T10 sequence (O75791 58-149 limits assumed): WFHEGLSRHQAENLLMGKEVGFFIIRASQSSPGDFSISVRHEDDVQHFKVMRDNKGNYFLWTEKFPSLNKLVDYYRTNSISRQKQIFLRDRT

HSH2D = target: T11, HSH2D (Homo sapiens, UniProt Q96JZ2)
T11 construct: the DNA-tagged SH2 domain concentrations used in this study were <0.1 nM; made in house; host or cells: HEK293 (transient transfection, unpurified extract)
T11 sequence (Q96JZ2 34-125 limits assumed): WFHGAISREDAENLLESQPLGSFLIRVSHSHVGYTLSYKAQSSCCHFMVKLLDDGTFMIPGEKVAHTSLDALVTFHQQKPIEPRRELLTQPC

T5 sequence (P42685 116-208 limits assumed): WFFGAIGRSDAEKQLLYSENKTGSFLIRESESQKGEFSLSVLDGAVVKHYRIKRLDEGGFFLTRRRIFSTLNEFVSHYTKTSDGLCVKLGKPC
T1 sequence (O00459 330-425 limits assumed): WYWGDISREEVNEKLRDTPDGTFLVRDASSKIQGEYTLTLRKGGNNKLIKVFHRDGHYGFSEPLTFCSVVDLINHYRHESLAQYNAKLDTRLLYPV
T7 sequence (P51451 124-220 limits assumed): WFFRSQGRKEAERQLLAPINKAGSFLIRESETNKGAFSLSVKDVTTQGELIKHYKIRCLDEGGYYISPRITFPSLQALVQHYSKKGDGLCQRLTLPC
T3 sequence (P27986 333-428 limits assumed): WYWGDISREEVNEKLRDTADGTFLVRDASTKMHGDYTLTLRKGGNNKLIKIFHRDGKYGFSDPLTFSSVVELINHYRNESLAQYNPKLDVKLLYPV
T6 sequence (P07947 158-255 limits assumed): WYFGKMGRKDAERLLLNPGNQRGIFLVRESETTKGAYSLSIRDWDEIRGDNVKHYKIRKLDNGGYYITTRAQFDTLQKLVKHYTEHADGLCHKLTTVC
T8 sequence (P06241 149-246 limits assumed): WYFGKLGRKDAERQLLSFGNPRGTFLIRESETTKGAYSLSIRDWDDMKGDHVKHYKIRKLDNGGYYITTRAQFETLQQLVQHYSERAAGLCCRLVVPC

## CSCC[C@H](NC(=O)[C@H](CC(=O)O)NC(=O)[C@H](CC(C)C)NC(=O)[C@H](CCSC)NC(=O)[C@@H]1CCCN1C(=O)[C@@H](NC(=O)[C@H](Cc1ccc(OP(=O)(O)O)cc1)NC(=O)[C@H](CC(=O)O)NC(=O)[C@@H](NC(=O)[C@H](CO)NC(=O)[C@H](CCC(=O)O)NC(=O)[C@H](CC(=O)O)NC(=O)[C@H](CCCCN)NC(=O)[C@H](CO)NC(=O)[C@H](CCSC)NC(=O)[C@H](CC(=O)O)NC(C)=O)C(C)C)C(C)C)C(=O)N[C@@H](CCCCN)C(N)=O (Ac-DMSKDESVD[pY]VPMLDMK-NH2)
PIK3R2(SH2dom.N-term.)
  Kd: 46.7 ± 6.22 nM
PIK3R3(SH2dom.N-term.)
  Kd: 78.5 ± 26.1 nM
PIK3R1(SH2dom.N-term.)
  Kd: 41.2 ± 9.77 nM

## CC[C@H](C)[C@H](NC(=O)[C@H](CC(N)=O)NC(=O)[C@H](CCC(=O)O)NC(=O)[C@H](CCC(=O)O)NC(=O)[C@H](CCC(=O)O)NC(C)=O)C(=O)N[C@@H](Cc1ccc(OP(=O)(O)O)cc1)C(=O)N[C@@H](CO)C(=O)N[C@H](C(=O)N1CCC[C@H]1C(=O)N[C@@H](Cc1c[nH]cn1)C(=O)N[C@@H](CC(=O)O)C(=O)N[C@@H](CO)C(=O)N[C@H](C(N)=O)[C@@H](C)O)C(C)C (Ac-EEENI[pY]SVPHDST-NH2)
RASA1(SH2dom.N-term.)
  Kd: 472 ± 309 nM

## CC[C@H](C)[C@H](NC(=O)[C@@H]1CCCN1C(=O)[C@@H](NC(=O)[C@H](CCC(=O)O)NC(=O)[C@H](CCC(=O)O)NC(=O)[C@H](Cc1ccc(OP(=O)(O)O)cc1)NC(=O)[C@H](CCC(N)=O)NC(=O)[C@@H]1CCCN1C(=O)[C@H](CCC(=O)O)NC(C)=O)[C@@H](C)CC)C(=O)N[C@@H](CCCCN)C(=O)N[C@@H](CCC(N)=O)C(N)=O (Ac-EPQ[pY]EEIPIKQ-NH2)
FRK
  Kd: 6980 ± 1930 nM

## CC[C@H](C)[C@H](NC(=O)[C@@H]1CCCN1C(=O)[C@@H](NC(=O)[C@H](CCC(=O)O)NC(=O)[C@H](CCC(=O)O)NC(=O)[C@H](Cc1ccc(OP(=O)(O)O)cc1)NC(=O)[C@H](CCC(N)=O)NC(=O)[C@@H]1CCCN1C(=O)[C@H](CCC(=O)O)NC(C)=O)[C@@H](C)CC)C(=O)N[C@@H](Cc1ccc(O)cc1)C(=O)N[C@@H](CC(C)C)C(=O)N[C@@H](CCCCN)C(N)=O (Ac-EPQ[pY]EEIPIYLK-NH2)
YES
  Kd: 234 ± 37.6 nM
BLK
  Kd: 488 ± 188 nM
FYN
  Kd: 31.8 ± 2.15 nM

## CC(=O)N[C@@H](CCC(=O)O)C(=O)N[C@@H](CCC(N)=O)C(=O)N[C@@H](CC(=O)O)C(=O)N1CCC[C@H]1C(=O)N[C@@H](CCC(N)=O)C(=O)N[C@@H](CCC(=O)O)C(=O)N[C@H](C(=O)N[C@H](C(=O)N[C@@H](Cc1ccc(OP(=O)(O)O)cc1)C(=O)N[C@@H](C)C(=O)N[C@@H](CCC(N)=O)C(=O)N[C@@H](CC(C)C)C(=O)N[C@@H](CC(N)=O)C(=O)N[C@@H](Cc1c[nH]cn1)C(N)=O)[C@@H](C)O)C(C)C (Ac-EQDPQEVT[pY]AQLNH-NH2)
PTPN6(SH2dom.N-term.)
  Kd: 3860 ± 864 nM

## CSCC[C@H](NC(=O)[C@H](Cc1ccc(OP(=O)(O)O)cc1)NC(=O)[C@H](CC(=O)O)NC(=O)[C@H](CO)NC(C)=O)C(=O)N[C@@H](CC(N)=O)C(=O)N[C@@H](CCSC)C(=O)N[C@H](C(=O)N1CCC[C@H]1C(=O)N[C@@H](CCCNC(=N)N)C(=O)N[C@@H](CCCNC(=N)N)C(=O)N1CCC[C@H]1C(N)=O)[C@@H](C)O (Ac-SD[pY]MNMTPRRP-NH2)
GADS
  Kd: 244 ± 73.3 nM
HSH2D
  Kd: 873 ± 159 nM
